Tests used:
B16F10 cells = experiment: Proliferation assay B16F10; format: cell-based, mouse; details: Mus musculus, B16-F10, 96 h; 4 days, crystal violet; read-out: Inhibition of B16F10 cell proliferation IC50
Experimental: Cultivated tumour cells (HeLa, human cervical tumour cells, ATCC CCL-2; NCI-H460, human non-small cell lung carcinoma cells, ATCC HTB-177; A2780, human ovarian carcinoma cells, ECACC #93112519; DU 145, hormone-independent human prostate carcinoma cells, ATCC HTB-81; HeLa-MaTu-ADR, multidrug-resistant human cervical carcinoma cells, EPO-GmbH Berlin; Caco-2, human colorectal carcinoma cells, ATCC HTB-37; B16F10, mouse melanoma cells, ATCC CRL-6475) were plated at a density of 5,000 cells/well (DU145, HeLa-MaTu-ADR), 3,000 cells/well (NCI-H460, HeLa), 2,500 cells/well (A2780), 1,500 cells/well (Caco-2), or 1,000 cells/well (B16F10) in a 96-well multititer plate in 200 μL of their respective growth medium supplemented 10% fetal calf serum. After 24 hours, the cells of one plate (zero-point plate) were stained with crystal violet (see below), while the medium of the other plates was replaced by fresh culture medium (200 μl), to which the test substances were added in various concentrations (0 μM, as well as in the range of 0.001-10 μM). The cells were incubated for 4 days in the presence of test substances. Cell proliferation was determined by staining the cells with crystal violet: the cells were fixed by adding 20 μl/measuring point of an 11% glutaric aldehyde solution for 15 minutes at room temperature. After three washing cycles of the fixed cells with water, the plates were dried at room temperature. The cells were stained by adding 100 μl/measuring point of a 0.1% crystal violet solution (pH 3.0). After three washing cycles of the stained cells with water, the plates were dried at room temperature. The dye was dissolved by adding 100 μl/measuring point of a 10% acetic acid solution. The extinction was determined by photometry at a wavelength of 595 nm. The change of cell number, in percent, was calculated by normalization of the measured values to the extinction values of the zero-point plate (=0%) and the extinction of the untreated (0 μm) cells (=100%). The IC50 values (inhibitory concentration at 50% of maximal effect) were determined by means of a 4 parameter fit. Non-adherent MOLM-13 human acute myeloid leukemia cells (DSMZ ACC 554) were seeded at a density of 5,000 cells/well in a 96-well multititer plate in 100 μL of growth medium supplemented 10% fetal calf serum. After 24 hours, cell viability of one plate (zero-point plate) was determined with the Cell Titre-Glo Luminescent Cell Viability Assay (Promega), while 50 μL of test compound containing medium was added to the wells of the other plates (final concentrations in the range of 0.001-1 μM and DMSO controls). Cell viability was assessed after 72-hour exposure with the Cell Titre-Glo Luminescent Cell Viability Assay (Promega). IC50 values (inhibitory concentration at 50% of maximal effect) were determined by means of a 4 parameter fit on measurement data which were normalized to vehicle (DMSO) treated cells (=100%) and measurement readings taken immediately before compound exposure (=0%).

CDK9/CycT1 = molecular target: T1, CDK9/CycT1 (Homo sapiens, UniProt P50750); experiment: CDK9/CycT1 high ATP kinase assay (TR-FRET, Method 1b); format: biochemical; details: for IC50: Method 1b, 2 mM ATP; for Selectivity high ATP CDK9 over high ATP CDK2: IC50 (high ATP CDK2)/IC50 (high ATP CDK9): Methods 1b and 2b, minimal values where CDK9 IC50 is at the assay limit
T1 construct: Recombinant full-length His-tagged human CDK9 and CycT1; His; purchased Invitrogen PV4131; host or cells: insect cells
Experimental: 1b. CDK9/CycT1 High ATP Kinase Assay
CDK9/CycT1-inhibitory activity of compounds of the present invention at a high ATP concentration after preincubation of enzyme and test compounds was quantified employing the CDK9/CycT1 TR-FRET assay as described in the following paragraphs.
Recombinant full-length His-tagged human CDK9 and CycT1, expressed in insect cells and purified by Ni-NTA affinity chromatography, were purchase from Invitrogen (Cat. No PV4131). As substrate for the kinase reaction biotinylated peptide biotin-Ttds-YISPLKSPYKISEG (C-terminus in amid form) was used which can be purchased e.g. from the company JERINI peptide technologies (Berlin, Germany). For the assay 50 nl of a 100 fold concentrated solution of the test compound in DMSO was pipetted into a black low volume 384 well microtiter plate (Greiner Bio-One, Frickenhausen, Germany), 2 μl of a solution of CDK9/CycT1 in aqueous assay buffer [50 mM Tris/HCl pH 8.0, 10 mM MgCl2, 1.0 mM dithiothreitol, 0.1 mM sodium ortho-vanadate, 0.01% (v/v) Nonidet-P40 (Sigma)] were added and the mixture was incubated for 15 min at 22° C. to allow pre-binding of the test compounds to the enzyme before the start of the kinase reaction. […] The concentration of CDK9/CycT1 was adjusted depending of the activity of the enzyme lot and was chosen appropriate to have the assay in the linear range, typical concentrations were in the range of 0.5 μg/mL. The reaction was stopped by the addition of 5 μl of a solution of TR-FRET detection reagents (0.2 μM streptavidine-XL665 [Cisbio Bioassays, Codolet, France] and 1 nM anti-RB(pSer807/pSer811)-antibody from BD Pharmingen [#558389] and 1.2 nM LANCE EU-W1024 labeled anti-mouse IgG antibody [Perkin-Elmer, product no. AD0077]) in an aqueous EDTA-solution (100 mM EDTA, 0.2% (w/v) bovine serum albumin in 100 mM HEPES pH 7.5).
The resulting mixture was incubated 1 h at 22° C. to allow the formation of complex between the phosphorylated biotinylated peptide and the detection reagents. Subsequently the amount of phosphorylated substrate was evaluated by measurement of the resonance energy transfer from the Eu-chelate to the streptavidine-XL. Therefore, the fluorescence emissions at 620 nm and 665 nm after excitation at 350 nm was measured in a HTRF reader, e.g. a Rubystar (BMG Labtechnologies, Offenburg, Germany) or a Viewlux (Perkin-Elmer). The ratio of the emissions at 665 nm and at […] was taken as the measure for the amount of phosphorylated substrate. The data were normalised (enzyme reaction without inhibitor=0% inhibition, all other assay components but no enzyme=100% inhibition).

T1 sequence (P50750 whole entry): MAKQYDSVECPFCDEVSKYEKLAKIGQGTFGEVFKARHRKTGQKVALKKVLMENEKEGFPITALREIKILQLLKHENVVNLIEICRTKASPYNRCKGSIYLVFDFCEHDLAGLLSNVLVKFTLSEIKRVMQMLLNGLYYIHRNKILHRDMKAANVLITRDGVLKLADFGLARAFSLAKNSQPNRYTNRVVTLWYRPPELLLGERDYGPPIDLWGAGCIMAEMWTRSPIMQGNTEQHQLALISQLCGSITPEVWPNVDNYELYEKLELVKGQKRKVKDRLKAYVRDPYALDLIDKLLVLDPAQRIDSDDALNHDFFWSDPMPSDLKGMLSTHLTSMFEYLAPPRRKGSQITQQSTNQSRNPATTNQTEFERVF
T1 sequence (O60563 whole entry partner): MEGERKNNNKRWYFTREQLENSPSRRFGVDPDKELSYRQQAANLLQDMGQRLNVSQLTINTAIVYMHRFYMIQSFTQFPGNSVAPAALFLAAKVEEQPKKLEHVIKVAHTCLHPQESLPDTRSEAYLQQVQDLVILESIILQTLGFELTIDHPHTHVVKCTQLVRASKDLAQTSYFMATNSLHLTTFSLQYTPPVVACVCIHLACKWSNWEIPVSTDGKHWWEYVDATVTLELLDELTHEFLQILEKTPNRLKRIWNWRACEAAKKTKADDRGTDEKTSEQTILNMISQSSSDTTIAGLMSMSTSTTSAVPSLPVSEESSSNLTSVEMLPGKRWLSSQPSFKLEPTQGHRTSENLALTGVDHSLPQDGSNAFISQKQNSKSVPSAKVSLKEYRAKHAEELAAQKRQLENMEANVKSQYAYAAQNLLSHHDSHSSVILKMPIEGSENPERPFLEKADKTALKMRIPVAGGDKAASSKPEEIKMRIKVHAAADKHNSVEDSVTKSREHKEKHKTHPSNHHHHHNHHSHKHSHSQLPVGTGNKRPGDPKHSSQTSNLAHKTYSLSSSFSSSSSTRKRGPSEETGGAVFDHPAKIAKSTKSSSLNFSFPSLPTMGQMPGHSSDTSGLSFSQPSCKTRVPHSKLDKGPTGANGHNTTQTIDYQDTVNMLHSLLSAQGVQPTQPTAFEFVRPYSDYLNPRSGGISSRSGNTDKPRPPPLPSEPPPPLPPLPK

Compound | IC50 (B16F10 cells) [nM] | IC50 (CDK9/CycT1) [nM] | Selectivity high ATP CDK9 over high ATP CDK2: IC50 (high ATP CDK2)/IC50 (high ATP CDK9) (CDK9/CycT1)
CS(=N)(=O)Cc1cc2cc(c1)OCCCOc1cc(F)ccc1-c1nc(ncc1F)N2 (racemic) [Example 15, (rac)-15,19-difluoro-8-[(S-methylsulfonimidoyl)methyl]-3,4-dihydro-2H,11H-12,16-(azeno)-10,6-(metheno)-1,5,11,13-benzodioxadiazacyclooctadecine] | 23 | 1.9 | 123.6
C[S+]([O-])Cc1cc2nc(c1)OCCCCOc1cc(F)ccc1-c1cc(ncc1F)N2 (racemic) [Example 13, (rac)-16,20-difluoro-9-[(methylsulfinyl)methyl]-2,3,4,5-tetrahydro-12H-11,7-(azeno)-13,17-(metheno)-1,6,12,14-benzodioxadiazacyclononadecine] | 30 | 3.2 | 35.3

Source: US9963464B2, “Macrocyclic compounds” (Bayer Pharma Aktiengesellschaft, priority 2014, dated 2018)
